Results as given in publication PMC11249646, “Small-Molecule Disruptors of the Interaction between Calcium- and Integrin-Binding Protein 1 and Integrin αIIbβ3 as Novel Antiplatelet Agents” (ACS Pharmacology & Translational Science, 2024).
Where two headings read alike, the source gives them in different places.

Experiments:
Assay type in all cases: binding
[1] = molecular target: T1, CIB1 and αIIb interaction (CIB1-GST : F-αIIb peptide) (Homo sapiens, UniProt Q99828); assay: FP assay, 1536-well qHTS format (primary and confirmatory screen); settings: for CONFIRMATORY SCREEN Confirm?: YES/NO call; for CONFIRMATORY SCREEN Curve Class: qHTS curve class
T1 construct: made in house; host or cells: BL-21 plus RIL cells (E. coli)
T1 sequence (Q99828 1-191): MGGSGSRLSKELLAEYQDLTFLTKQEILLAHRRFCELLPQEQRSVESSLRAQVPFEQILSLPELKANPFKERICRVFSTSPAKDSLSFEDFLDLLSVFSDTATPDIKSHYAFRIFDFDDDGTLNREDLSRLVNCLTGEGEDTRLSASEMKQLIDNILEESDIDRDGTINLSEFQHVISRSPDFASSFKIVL

[2] = molecular target: T2, GST-CIB1 : F-scrambled peptide (Homo sapiens, UniProt Q99828); assay: FP scrambled-peptide counter screen, 384-well format; settings: for IC50: read-out: 384-well COUNTERSCREEN IC50; for 384-well COUNTERSCREEN Confirm?: *: Curve in opposite direction
T2 construct: made in house; host or cells: BL-21 plus RIL cells (E. coli)
T2 sequence (Q99828 1-191): T1 sequence (Q99828 1-191)

[3] = molecular target: T3, CIB1 and αIIb interaction (GST-CIB1 : F-αIIb peptide) (Homo sapiens, UniProt Q99828); assay: FP assay, 384-well format (screen); set-up: 384-well SCREEN Efficacy (%): concentration or dose not given beside the values; settings: for IC50: read-out: 384-well SCREEN IC50
T3 construct: made in house; host or cells: BL-21 plus RIL cells (E. coli)
T3 sequence (Q99828 1-191): T1 sequence (Q99828 1-191)

[4] = molecular target: T2, GST-CIB1 : F-scrambled peptide; assay: FP scrambled-peptide counter screen, 1536-well format; settings: scrambled-peptide counterscreen; for COUNTERSCREEN Confirm?: YES/NO call; for IC50: read-out: COUNTERSCREEN IC50; for COUNTERSCREEN Curve Class: qHTS curve class
[5] = confirmatory screen, negative sign = inhibitory curve
[6] = confirmatory screen, negative = inhibition
[7] = confirmatory screen, read-out: CONFIRMATORY SCREEN IC50
[8] = qHTS primary screen hits, Table S2, negative = inhibition
[9] = qHTS primary screen hits, Table S2, negative sign = inhibitory curve, several classes where COUNT > 1
[10] = qHTS primary screen hits, Table S2, read-out: IC50
[11] = qHTS FP screen hits, Table S2, negative = inhibition
[12] = qHTS FP screen hits, Table S2, one class per curve where COUNT > 1, negative sign = inhibitory curve
[13] = qHTS FP screen hits, Table S2, read-out: IC50

| SMILES | CONFIRMATORY SCREEN Confirm? ([1]; confirmatory screen) | CONFIRMATORY SCREEN Curve Class [1, 5] | CONFIRMATORY SCREEN Efficacy (%) [1, 6] | IC50 [1, 7] | Efficacy (%) [1, 8] | Curve Class [1, 9] | IC50 [1, 10] | 384-well COUNTERSCREEN Efficacy (%) ([2]; F-scrambled peptide) | IC50 ([2]; F-scrambled peptide) | 384-well SCREEN Efficacy (%) ([3]; F-αIIb peptide) | IC50 ([3]; F-αIIb peptide) | COUNTERSCREEN Efficacy (%) [4] | COUNTERSCREEN Confirm? [4] | 384-well SCREEN Confirm? ([3]; F-αIIb peptide, YES/NO) | COUNTERSCREEN Curve Class [4] | further results |
| --- | --- | --- | --- | --- | --- | --- | --- | --- | --- | --- | --- | --- | --- | --- | --- | --- |
| Oc1c(Cl)cc(Cl)c(Cl)c1Cc1c(O)c(Cl)cc(Cl)c1Cl [NCGC00091195-08] | YES | -1.4 | -38% | 7.1 µM | -59% | -2.2 | 50.1 µM | 205% | 31.6 µM | 55% | > 120 µM | 106% | YES | – | – | IC50 [4]: 89.1 µM |
| Brc1c(Br)c(Br)c2[nH]nnc2c1Br [NCGC00092352-04, 4,5,6,7-tetrabromobenzotriazole, reference compound] | YES | -1.2 | -43% | 2.8 µM | – | – | – | 35% | > 120 µM | 40% | 4.7 µM | 79% | YES | YES | 3 | IC50 ([1]; 1536-well qHTS of 14,782 compounds, read-out: intraplate control IC50): ~10.7 µM; IC50 ([1]; 1536-well, LOPAC1280 pilot screen, 0.85 μM GST-CIB1, 100 nM F-αIIb, RT 15 minutes): double-digit micromolar inhibitor; Efficacy (%) [1, 11]: -49%; Curve Class [1, 12]: -1.2; IC50 [1, 13]: 14.1 µM; 384-well COUNTERSCREEN Confirm? ([2]; F-scrambled peptide): YES; IC50 [4]: 79.4 µM |
| CN1CCCN=C1/C=C/c1cccs1 [NCGC00094552-04] | – | – | – | 50.1 µM | – | – | 24.1 µM | – | 4.6 µM | – | > 120 µM | – | – | – | – | – |
| CN1CCCN=C1/C=C/c1cccs1.O=C(O)c1cc2ccccc2c(Cc2c(O)c(C(=O)O)cc3ccccc23)c1O [NCGC00094552-04] | YES | -2.4 | -39% | – | -25% | -2.4 | – | 40% | – | 24% | – | 0% | YES | – | 4 | – |
| CCCCCc1c2c(cc(O)c1C(=O)O)OC(=O)c1c(cc(OC)cc1C(=O)CCCC)O2.O=C(O)C(F)(F)F [NCGC00095570-05] | YES | -1.2 | -60% | 11.2 µM | -33% | -1.4 | 12.6 µM | 58% | 50.1 µM | 38% | 8.9 µM | -14% | YES | YES | 4 | 384-well COUNTERSCREEN Confirm? ([2]; F-scrambled peptide): YES |
| O=C(O)C(F)(F)F.O=S(=O)(Nc1nc2n(n1)C(c1ccccc1)C=C(c1ccc(Cl)cc1)N2)c1ccccc1 (stereo not shown) [NCGC00100537-04] | YES | -2.2 | -81% | 39.8 µM | – | – | – | 80% | 50.1 µM | 85% | 50.1 µM | 10% | YES | YES | 4 | Efficacy (%) [1, 11]: -125%; Curve Class [1, 12]: -1.1; IC50 [1, 13]: 22.4 µM |
| Cc1nc(/N=N\c2cc(S(=O)(=O)O)c3cc([N+](=O)[O-])cc(S(=O)(=O)O)c3c2)c(COP(=O)(O)O)c(C=O)c1O [NCGC00162294-03] | – | – | – | – | – | – | 7.9 µM | – | 3.3 µM | – | 1.7 µM | – | – | – | – | – |
| Nc1c(S(=O)(=O)[O-])cc(Nc2ccc(Nc3nc(Cl)nc(Nc4ccc(S(=O)(=O)O)cc4)n3)c(S(=O)(=O)O)c2)c2c1C(=O)c1ccccc1C2=O.[Na+] [NCGC00162329-02] | – | – | – | – | -64% | – | 1.4 µM | 60% | 1.3 µM | 60% | 1 µM | – | – | YES | – | Curve Class ([1]; qHTS primary screen hits, Table S2, negative sign = inhibitory curve): -1.2 |
| O=[N+]([O-])c1ccc2c(c1)S(=O)(=O)C=C2 [NCGC00167848-02] | – | – | – | – | – | – | 0.7 µM | – | > 120 µM | – | 120 µM | – | – | – | – | Curve Class [1]: -1.4; Efficacy (%) [1]: -37%; 384-well COUNTERSCREEN Efficacy (%) [2]: 45%; 384-well SCREEN Confirm? [3]: YES; 384-well SCREEN Efficacy (%) [3]: 50% |
